Results from US12178845B2, “Methods and compositions relating to the treatment of tumors” (THE GENERAL HOSPITAL CORPORATION, priority 2016, dated 2024).
Peptide text beside a SMILES is read from it. * marks the point of attachment. Cbz = O=C(OCc1ccccc1)*; CH2F = FC*

What was measured:
ASC in HEI-193 cell line = assay: Demethylation of ASC CpG island, ASC expression by RT-PCR; assay type: cell-based, human
Procedure: The cultured cells were treated with (5azadeoxycytindine 0.5, 1 or 2.5 uM) or not treated (0) for 3 days.
Real-time quantitative PCR analyses. RNA isolation from tissue samples was conducted with TRIzol™ reagent according to the manufacturer's instructions (Qiagen, USA) and transcribed into cDNA using superscript VILO™ cDNA synthesis kit (Invitrogen, USA). Taqman™ real-time PCR was carried out using RealPlex MasterCycler™ (eppendorf, USA). […] Taqman probes were purchased from life technologies, USA.

08031-9 cells = assay: In vitro apoptotic body staining; assay type: cell-based, mouse; details: 08031-9 transfected with pAAV-CBA-hASC
[1] = test system: HEI-193 human schwannoma cell line; details: HEI193 cells transfected with pAAV-CBA-hASC
Procedure: For all cell types, growth media were supplemented with 10% fetal bovine serum (FBS; Sigma-Aldrich) and 1% penicillin-streptomycin (Cellgro, Herndon, VA) and cells were maintained at 37° C. in a humidified atmosphere of 5% CO2 and 95% air. […] For transfections in 24-well format, 100,000 cells were seeded 24 hours prior to transfection. 1 μl of liofectamine 2000 (Invitrogen, USA) was used for every 500 ng of transfected plasmid in FBS free medium (Optimem, Invitrogen, USA). The DNA/Lipofectamine mix was incubated at room temperature for 30 minutes before spread over the cells and left for 5-6 hours then replaced by fresh medium. The amount of plasmid/lipofectamine was scaled up according to the plate format used.
Cell viability and toxicity assay. The Cell Titer-Glo™ luminescent cell viability assay (Promega, Madison, WI) was used to determine the number of viable cells in culture on the basis of quantitation of ATP levels, an indicator of metabolically active cells. […] The luminescence was measured with a luminometer (Dynex Technologies, Chantilly, VA). Cell death was measured by the LDH assay using CytoTox 96 Non-Radioactive Cytotoxicity Assay kit (Promega) according to the manufacturer's instructions.

HEI-193 cells = assay: In vitro apoptosis staining (TACS 2 TdT-DAB); assay type: cell-based, human; details: HEI-193 transfected with pAAV-CBA-hASC
Procedure: To determine whether the ASC/TMS1-mediated growth inhibition was the result of caspases induced apoptosis, in vitro apoptosis staining was performed using TACS 2 TdT-DAB In situ Apoptosis Detection kit (Trevigen).
Apoptosis assay. In-vitro DNA fragmentation of apoptotic cells was assessed TACS® 2 TdT-DAB in Situ Apoptosis Detection Kit. In brief, HEI-193 cells on the coated cover glass and transfected with dsAAV-CBA-ASC or dsAAV-CBA-GFP. Fragmented DNA were visualized with diaminobenzidine (DAB) and viewed by light microscope. In-vivo apoptosis study was assessed using the same kit on fresh frozen nerves that were sliced to 15 um thin sections using cryostat and fixed in 3.7% formaldehyde.

Row | Compound | ASC promoter methylation (ASC in HEI-193 cell line) | ASC expression (RT-PCR, normalized to β-actin) (ASC in HEI-193 cell line; 0.5, 1 or 2.5 uM for 3 days, ASC-negative HEI-193) | apoptosis in presence of caspase inhibitor (08031-9 cells) | LDH release cytotoxicity in presence of caspase inhibitor [1] | apoptosis in presence of caspase inhibitor (HEI-193 cells) | apoptosis in presence of caspase inhibitor (HEI-193 cells; listed as ZDEVDFMK) | apoptosis in presence of caspase inhibitor (HEI-193 cells; listed as caspase-3 inhibitor) | apoptosis in presence of caspase inhibitor (HEI-193 cells; listed as ZVADFMK) | apoptosis in presence of caspase inhibitor (HEI-193 cells; listed as pan-caspase inhibitor)
1 | Nc1ncn([C@H]2C[C@H](O)[C@@H](CO)O2)c(=O)n1 [5azadeoxycytidine] | reversible | restores expression | – | – | – | – | – | – | –
2 | COC(=O)CC[C@H](NC(=O)[C@H](CC(=O)OC)NC(=O)OCc1ccccc1)C(=O)N[C@H](C(=O)N[C@@H](CC(=O)OC)C(=O)CF)C(C)C [ZDEVD-FMK] | – | – | abolished | inhibited | no apoptosis | inhibit | abolished | – | –
3 | COC(=O)C[C@H](NC(=O)[C@H](C)NC(=O)[C@@H](NC(=O)OCc1ccccc1)C(C)C)C(=O)CF [ZVAD-FMK] (Cbz-Val-Ala-Asp(OMe)-CH2F) | – | – | abolished | inhibited | no apoptosis | – | – | inhibit | abolished
